In brackets after ≈: the same amount, converted by molar mass. Where two headings read alike, the source gives them in different places.
Experiments:
[1] = the molecule shown is the open-chain precursor; amide bond; 24-membered ring; BOP-Cl/DIEA; DCM; 58.9 mM
[2] = amide bond, 24-membered ring, BOP-Cl/DIEA
[3] = test system: Microfilaria of Dirofilaria immitis; experiment: Method B: survival of microfilaria of Dirofilaria immitis in microtitre plate; conditions: 72 h, read-out: median EC50, survival of microfilaria at 72 hours
Haemonchus contortus = experiment: Method A: development of L1 Haemonchus contortus larvae in microtitre plate; conditions: 96 h; for EC50: read-out: median EC50
Description: Twenty L1 Haemonchus contortus larvae were added to wells of a microtitre plate containing a nutrient medium and the test compound in DMSO. An analysis was conducted at 4 days to determine the extent of development of the larvae. Larvae exposed to DMSO alone served as controls. The potencies of the compounds were evaluated in an MIC90 and/or EC50 format.

Row | Compound | EC50 [3] | EC50 (Haemonchus contortus) | other results
1 | H-MeLeu(4-F)-dPhLac(4-tBu)-MeLeu(4-Me)-dLac-MeLeu(4-F)-dPhLac(4-tBu)-MeLeu(4-Me)-dLac-OH | – | – | ring closure, isolated yield [1]: 55%
2 | C[C@H]1OC(=O)[C@H](CC(C)(C)C)N(C)C(=O)[C@@H](Cc2ccc(OC(F)(F)F)cc2)OC(=O)[C@H](CC(C)(C)F)N(C)C(=O)[C@@H](C)OC(=O)[C@H](CC(C)(C)C)N(C)C(=O)[C@@H](Cc2ccc(OC(F)(F)F)cc2)OC(=O)[C@H](CC(C)(C)F)N(C)C1=O [Compound 5-32] | 100 to 1000 nM | 100 to 1000 nM | ring closure, yield after HPLC ([2]; from H-MeLeu(4-F)-dPhLac(4-OCF3)-MeLeu(4-Me)-dLac-MeLeu(4-F)-dPhLac(4-OCF3)-MeLeu(4-Me)-dLac-OH, DCM, 4.17 mM): 59%
3 | CC(C)C[C@H]1C(=O)O[C@H](C)C(=O)N(C)[C@@H](CC(C)(C)F)C(=O)O[C@H](Cc2ccc(C(F)(F)F)cc2)C(=O)N(C)[C@@H](CC(C)C)C(=O)O[C@H](C)C(=O)N(C)[C@@H](CC(C)(C)F)C(=O)O[C@H](Cc2ccc(C(F)(F)F)cc2)C(=O)N1C [Compound 4-18] | < 100 nM | 100 to 1000 nM | ring closure, yield after HPLC ([2]; from H-MeLeu(4-F)-dPhLac(4-CF3)-MeLeu-dLac-MeLeu(4-F)-dPhLac(4-CF3)-MeLeu-dLac-OH?, DCM, 5.2 mM, 25.0 °C): 34%
4 | C[C@H]1OC(=O)[C@H](CC(C)(C)C)N(C)C(=O)[C@@H](Cc2ccc(C3CCOCC3)cc2)OC(=O)[C@H](CC(C)(C)F)N(C)C(=O)[C@@H](C)OC(=O)[C@H](CC(C)(C)C)N(C)C(=O)[C@@H](Cc2ccc(C3CCOCC3)cc2)OC(=O)[C@H](CC(C)(C)F)N(C)C1=O [Compound 7-32] | < 100 nM | < 100 nM | ring closure, yield after HPLC ([2]; from H-MeLeu(4-F)-dPhLac(4-(oxan-4-yl))-MeLeu(4-Me)-dLac-MeLeu(4-F)-dPhLac(4-(oxan-4-yl))-MeLeu(4-Me)-dLac-OH, DCM, 25.0 mM): 61%
5 | CC(C)C[C@H]1C(=O)O[C@H](Cc2ccc(C3CCOCC3)cc2)C(=O)N(C)[C@@H](CC(C)C)C(=O)O[C@H](C)C(=O)N(C)[C@@H](CC(C)C)C(=O)O[C@H](Cc2ccc(C3CCOCC3)cc2)C(=O)N(C)[C@@H](CC(C)C)C(=O)O[C@H](C)C(=O)N1C [Compound 7-27] | < 100 nM | 1000 to 10000 nM | ring closure, yield after HPLC ([2]; from H-MeLeu-dPhLac(4-oxan-4-yl)-MeLeu-dLac-MeLeu-dPhLac(4-oxan-4-yl)-MeLeu-dLac-OH?, 25.0 °C): 13%
6 | CC(C)C[C@H]1C(=O)O[C@H](C)C(=O)N(C)[C@@H](CC(C)(C)F)C(=O)O[C@H](Cc2ccc(N3CCOCC3)cc2)C(=O)N(C)[C@@H](CC(C)C)C(=O)O[C@H](C)C(=O)N(C)[C@@H](CC(C)(C)F)C(=O)O[C@H](Cc2ccc(N3CCOCC3)cc2)C(=O)N1C [Compound 6-18] | – | 100 to 1000 nM | ring closure, yield after HPLC ([2]; from H-MeLeu(4-F)-dPhLac(4-morpholinyl)-MeLeu-dLac-MeLeu(4-F)-dPhLac(4-morpholinyl)-MeLeu-dLac-OH?, DCM, 1.7 mM, 25.0 °C): 23%
7 | CC(C)C[C@H]1C(=O)O[C@H](Cc2ccc(C(C)(C)C)cc2)C(=O)N(C)[C@@H](CC(C)(C)F)C(=O)O[C@H](C)C(=O)N(C)[C@@H](CC(C)C)C(=O)O[C@H](Cc2ccc(C(C)(C)C)cc2)C(=O)N(C)[C@@H](CC(C)(C)F)C(=O)O[C@H](C)C(=O)N1C [Compound 18-19] | < 100 nM | – | ring closure, yield after HPLC ([2]; from H-MeLeu-dPhLac(4-tBu)-MeLeu(4-F)-dLac-MeLeu-dPhLac(4-tBu)-MeLeu(4-F)-dLac-OH, DCM, 0.9 mM): 13%; MIC90 (Haemonchus contortus; read-out: median MIC90): 1 to 10 µM (≈ 1.1 to 11 µg/mL)
8 | CC(C)C[C@H]1C(=O)O[C@H](C)C(=O)N(C)[C@@H](CC(C)(C)F)C(=O)O[C@H](Cc2ccc(C3CCOCC3)cc2)C(=O)N(C)[C@@H](CC(C)C)C(=O)O[C@H](C)C(=O)N(C)[C@@H](CC(C)(C)F)C(=O)O[C@H](Cc2ccc(C3CCOCC3)cc2)C(=O)N1C [Compound 7-18] | < 100 nM | 1000 to 10000 nM | ring closure, yield after HPLC ([2]; from H-MeLeu(4-F)-dPhLac(4-(oxan-4-yl))-MeLeu-dLac-MeLeu(4-F)-dPhLac(4-(oxan-4-yl))-MeLeu-dLac-OH, DCM, 10.75 mM, 0.0 °C): 60%

— patent US12286455B2, “Anthelmintic depsipeptide compounds” (BOEHRINGER INGELHEIM ANIMAL HEALTH USA INC., priority 2015, dated 2025)
